Results as given in PMC8355587, “The Potential of Lisosan G as a Possible Treatment for Glaucoma” (Frontiers in Pharmacology, 2021).
Where two headings read alike, the source gives them in different places.

What was measured:
[1] = UHPLC-MS of LG components in the retina after LG gavage; type: in vivo, mouse; conditions: for AUC 0-24h in the retina / C max in the retina: *mg of retinal tissue (wet weight), n = 3; for Tmax: retina, 4.15 g LG/Kg of body weight; for retinal levels 24 h after LG administration: longest time period investigated
Method: For the analysis of different LG components reaching the retina after LG ingestion, a total of eighteen 6-mo-old D2 mice received an oral administration of LG solution by gavage. The retinas of three mice were dissected and quickly frozen in liquid nitrogen after 0 or 30 min and after 1, 2, 6, or 24 h. The retinas were stored at −80°C until used for mass spectrometry.
Assuming an average mouse body weight of 20 g, this dose corresponded to 4.15 g LG/Kg of body weight (human equivalent dose, 340 mg LG/Kg of body weight).
The main components of LG were determined in the LG powder (1 mg sample) using the same procedure as described below for the retinas. The most abundant were gallic acid, 4-hydroxybenzoic acid, quercetin, and nicotinamide (Table 2), therefore these metabolites were chosen as the LG components to be determined in the retina. To this aim, LG was administered to the mice by gavage and the retinas were dissected at different time points. The two retinas from each mouse were pooled together and they were resuspended in 0.2 ml of ice cold ultra-pure water (18 MΏ-cm) to lyse the cells. Three independent samples were analyzed for each time point. The tubes were plunged into dry ice or in a circulating bath at −25°C for 0.5 min and then into a water bath at 37°C for 0.5 min. Subsequently, 0.6 ml of −20°C methanol and then 0.4 ml of −20°C chloroform were added to each tube. The tubes were mixed every 5 min for 30 min, then they were centrifuged at 1000 × g for 1 min at 4°C, before being transferred to −20°C for 2–8 h. After centrifugation at 15,000 × g for 10 min at 4°C, the supernatants were collected and dried. Finally, the dried samples were resuspended in 0.1 ml of water and transferred to glass autosampler vials for LC-MS analysis. The supernatants were injected (20 μl) into a UHPLC system (Ultimate 3000; ThermoFisher Scientific, Waltham, MA, United States) and run in negative ion mode for determination of 4-hydroxy benzoic acid and in positive ion mode for the other. A ReproSil C18 column (2.0 mm × 150 mm, 2.5 μm; Dr Maisch, Ammerbuch-Entringen, Germany) was used for metabolite separation. […] For positive ion mode (+) MS analyses, a 0–100% linear gradient of solvent A (ddH2O, 0.1% formic acid) to B (acetonitrile, 0.1% formic acid) was employed over 20 min returning to 100% A in 3 min. For negative ion mode chromatographic separations A 0–100% linear gradient of solvent A (double-distilled 18 MΏ-cm water, […]) to B (100% acetonitrile, 10 mm ammonium acetate) was employed over 20 min, returning to 100% A in 3 min and a […] solvent A hold. The UHPLC system was coupled online with a mass spectrometer Q Exactive (ThermoFisher) scanning in full MS mode (2 μ scans) at 70,000 resolution in the 60–1000 m/z range. Data files were processed by MAVEN. 8.1 (http://genomics-pubs.princeton.edu/mzroll/) upon conversion of raw files into mzXML format through MassMatrix (Yellow Springs, OH, United States). Standard curves were obtained with several calibration points (2–0.00002 mg) of gallic acid, 4-hydroxybenzoic acid, quercetin, and nicotinamide analytical standards (Sigma Aldrich, St Louis, MO, United States).

[2] = parameters: method as in printed; conditions: general statement, no test and ref not given; cited from earlier work
[3] = D2 mice, LG by gavage 1 ml of 83 mg LG/ml (4.15 g LG/Kg)

AUC 0-24h in the retina [1, 3] | C max in the retina [1, 3] | time within which retinal levels decreased ([1]; after LG administration by gavage) | Tmax ([1]; mouse, po, D2 mice, LG by gavage 1 ml of 83 mg LG/ml (4.15 g LG/Kg), read-out: T max in the retina) | Tmax ([1]; D2, mouse, po, after LG administration by gavage, read-out: time of maximum concentration in the retina) | T max in the retina [1, 3] | Structure (SMILES) | T max in the retina ([1]; D2, mouse, in vivo, po) | retinal levels 24 h after LG administration [1] | solubility in water [2]
0.263 ± 0.049 ng·h/mg | 0.061 ± 0.016 ng/mg | ≤ 2 h | 30 min | – | – | O=c1c(O)c(-c2ccc(O)c(O)c2)oc2cc(O)cc(O)c12 [Quercetin, quercetin] | – | – | –
– | – | – | – | – | – | O=C(O)c1cc(O)c(O)c(O)c1 [Gallic acid, gallic acid] | 30 min | still in the range of its maximum concentration | –
106.900 ± 52.210 ng·h/mg | 8.040 ± 1.274 ng/mg | – | – | 360 min | – | NC(=O)c1cccnc1 [Nicotinamide, nicotinamide] | – | detectable, although low | –
958.500 ± 291.500 ng·h/mg | 444.250 ± 109.713 ng/mg | – | – | – | 30 min | O=C(O)c1ccc(O)cc1 [Hydroxy benzoic acid, 4-hydroxybenzoic acid] | – | – | only slightly soluble in water
